Reference: patent publication US9650395B2, “Antibacterial compounds and methods for use” (PTC Therapeutics, Inc., priority 2011, dated 2017)
Where a name gives a salt, the structure may show the parent alone. Read-outs that look alike come from different tables or passages of the source.

Key:
[1] = tested on: super sensitive Gram-negative Escherichia coli (E. coli) BAS849; assay: Antibacterial activity, microbroth dilution MIC, E. coli BAS849; assay type: cell-based; conditions: Escherichia coli, read-out: MIC, BAS849
[2] = tested on: control Gram-negative E. coli 25922 strain; assay: Antibacterial activity, microbroth dilution MIC, E. coli 25922; assay type: cell-based, Escherichia coli; conditions: Escherichia coli; E. coli 25922, microbroth dilution; read-out: MIC, 25922
[3] = tested on: Gram-positive Staphylococcus aureus (S. aureus) 29213; assay: Antibacterial activity, microbroth dilution MIC, S. aureus 29213; assay type: cell-based; conditions: Staphylococcus aureus; S. aureus 29213, microbroth dilution; read-out: MIC, 29213
[4] = tested on: quinolone resistant E. coli LZ3111; assay: Antibacterial activity, MIC, quinolone resistant E. coli LZ3111; assay type: cell-based, Escherichia coli; conditions: Escherichia coli, read-out: MIC, LZ3111
Source text: (§1) The antibacterial activity from a microbroth dilution method may be presented as the minimum inhibitory concentration (MIC in […]). The MIC value is the lowest concentration of a drug which prevents macroscopically visible bacterial growth under test conditions.
Mutations in these regions are known to confer a high level resistance to the quinolone class of antibiotics.

[5] = tested on: E. coli ELZ4000 (MDR clinical isolate); assay: Antibacterial activity, MIC, MDR E. coli ELZ4000; assay type: cell-based, Escherichia coli; conditions: Escherichia coli, read-out: MIC ELZ4000
[6] = tested on: E. coli ELZ4251 (MDR clinical isolate); assay: Antibacterial activity, MIC, MDR E. coli ELZ4251; assay type: cell-based, Escherichia coli; conditions: Escherichia coli, read-out: MIC ELZ4251
[7] = tested on: Klebsiella pneumoniae (K. pneumoniae) 35657; assay: Antibacterial activity, MIC, K. pneumoniae 35657; assay type: cell-based; conditions: Klebsiella pneumoniae
[8] = tested on: Pseudomonas aeruginosa (P. aeruginosa) 27853; assay: Antibacterial activity, MIC, P. aeruginosa 27853; assay type: cell-based; conditions: Pseudomonas aeruginosa, read-out: MIC 27853
Source text: as §1
Antibacterial activity of test compounds against the Gram-negative bacterium Pseudomonas aeruginosa (P. aeruginosa) 27853 is shown in Table 5.

[9] = tested on: Acinetobacter baumannii (A. baumannii) BAA747; assay: Antibacterial activity, MIC, A. baumannii BAA747; assay type: cell-based; conditions: Acinetobacter baumannii
[10] = tested on: Moraxella catarrhalis (M. catarrhalis) 25238; assay: Antibacterial activity, MIC, M. catarrhalis 25238; assay type: cell-based; conditions: Moraxella catarrhalis, read-out: MIC 25238
[11] = tested on: Haemophilus influenzae (H. influenzae) 49247; assay: Antibacterial activity, MIC, H. influenzae 49247; assay type: cell-based; conditions: Haemophilus influenzae, read-out: MIC 49247
How it was run: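 A microbroth dilution method gave the minimum inhibitory concentration for each compound against H. influenzae 49247, a Gram-negative bacterium. MIC means the smallest concentration of drug at which no macroscopically visible bacterial growth appears under the conditions of the test.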

[12] = tested on: Neisseria meningitidis (N. meningitidis) 13090; assay: Antibacterial activity, MIC, N. meningitidis 13090; assay type: cell-based; conditions: Neisseria meningitidis, read-out: MIC 13090
[13] = E. coli BAS849, microbroth dilution
[14] = E. coli ELZ4000, MDR clinical isolate
[15] = E. coli ELZ4251, MDR clinical isolate
[16] = A. baumannii BAA747, read-out: MIC BAA747

Measured: MIC

Cc1cc(C(=O)O)c(=O)[nH]c1-c1ccc(N(C)C)cc1 [Cpd 4, 6-[4-(dimethylamino)phenyl]-5-methyl-2-oxo-1,2-dihydropyridine-3-carboxylic acid]
< 1 µg/mL: [1]; [13]
3.5 to 12.5 µg/mL: [7]
12.5 to 150 µg/mL: [2] | [3] | [4] | [5]; [14] | [6]; [15] | [8]; P. aeruginosa 27853

CCc1cc(C(=O)O)c(=O)[nH]c1-c1ccccc1 [Cpd 75, 5-ethyl-2-oxo-6-phenyl-1,2-dihydropyridine-3-carboxylic acid]
1 to 3.5 µg/mL: [1]; [13]
12.5 to 150 µg/mL: [2] | [3] | [4] | [5]; [14] | [6]; [15] | [9]; [16] | [8]; P. aeruginosa 27853 | [10]; M. catarrhalis 25238

CCc1cc(C(=O)O)c(=O)[nH]c1-c1ccc(N2CCOCC2)c(F)c1 [Cpd 84, 5-ethyl-6-[3-fluoro-4-(morpholin-4-yl)phenyl]-2-oxo-1,2-dihydropyridine-3-carboxylic acid]
3.5 to 12.5 µg/mL: [1]; [13] | [10]; M. catarrhalis 25238
12.5 to 150 µg/mL: [2] | [3] | [4] | [5]; [14] | [6]; [15] | [9]; [16] | [8]; P. aeruginosa 27853
< 1 µg/mL: [11]; H. influenzae 49247
1 to 3.5 µg/mL: [12]; N. meningitidis 13090

CCc1cc(C(=O)O)c(=O)[nH]c1-c1ccc(N2CCNCC2)c(F)c1.O=C(O)C(F)(F)F [Cpd 92, 5-ethyl-6-[3-fluoro-4-(piperazin-1-yl)phenyl]-2-oxo-1,2-dihydropyridine-3-carboxylic acid trifluoroacetate]
3.5 to 12.5 µg/mL: [12]
12.5 to 150 µg/mL: [1] | [2] | [3] | [4] | [5] | [6] | [9]; BAA747, read-out: MIC BAA747 | [8] | [10]
1 to 3.5 µg/mL: [11]

CC(C)c1cc(C(=O)O)c(=O)[nH]c1-c1ccc(N(C)C)cc1 [Cpd 95, 6-[4-(dimethylamino)phenyl]-2-oxo-5-(propan-2-yl)-1,2-dihydropyridine-3-carboxylic acid]
12.5 to 150 µg/mL: [3] | [4] | [5]; [14] | [6]; [15] | [7] | [8]; P. aeruginosa 27853
< 1 µg/mL: [1]; [13] | [11]; H. influenzae 49247 | [10]; M. catarrhalis 25238 | [12]; N. meningitidis 13090
3.5 to 12.5 µg/mL: [2]

CCc1cc(C(=O)O)c(=O)[nH]c1-c1ccc(N(CC)CC)cc1 [Cpd 97, 6-[4-(diethylamino)phenyl]-5-ethyl-2-oxo-1,2-dihydropyridine-3-carboxylic acid]
< 1 µg/mL: [1]; [13] | [11]; H. influenzae 49247 | [10]; M. catarrhalis 25238 | [12]; N. meningitidis 13090
3.5 to 12.5 µg/mL: [2] | [7]
12.5 to 150 µg/mL: [3] | [4] | [5]; [14] | [6]; [15] | [8]; P. aeruginosa 27853

CCc1cc(C(=O)O)c(=O)[nH]c1-c1ccc(N2CCC[C@@H]2COC)cc1 [Cpd 147, 5-ethyl-6-{4-[(2R)-2-(methoxymethyl)pyrrolidin-1-yl]phenyl}-2-oxo-1,2-dihydropyridine-3-carboxylic acid]
12.5 to 150 µg/mL: [4] | [5]; [14] | [6]; [15] | [8]; P. aeruginosa 27853
< 1 µg/mL: [1]; [13] | [11]; H. influenzae 49247 | [10]; M. catarrhalis 25238 | [12]; N. meningitidis 13090
3.5 to 12.5 µg/mL: [2] | [3]

CCc1cc(C(=O)O)c(=O)[nH]c1-c1ccc(N2CC[C@@H](N(C)C)C2)cc1.O=C(O)C(F)(F)F [Cpd 150, 6-{4-[(3R)-3-(dimethylamino)pyrrolidin-1-yl]phenyl}-5-ethyl-2-oxo-1,2-dihydropyridine-3-carboxylic acid trifluoroacetate]
1 to 3.5 µg/mL: [2]
< 1 µg/mL: [1] | [11]; H. influenzae 49247 | [10]; M. catarrhalis 25238 | [12]; N. meningitidis 13090
12.5 to 150 µg/mL: [3] | [4] | [5]; [14] | [6]; [15] | [8]; P. aeruginosa 27853

CCc1cc(C(=O)O)c(=O)[nH]c1-c1ccc(N2CC[C@H](N(C)C)C2)cc1.Cl [Cpd 151, 6-{4-[(3S)-3-(dimethylamino)pyrrolidin-1-yl]phenyl}-5-ethyl-2-oxo-1,2-dihydropyridine-3-carboxylic acid hydrochloride]
1 to 3.5 µg/mL: [2]
< 1 µg/mL: [1]; [13] | [11]; H. influenzae 49247 | [10]; M. catarrhalis 25238 | [12]; N. meningitidis 13090
12.5 to 150 µg/mL: [3] | [4] | [5]; [14] | [6]; [15] | [8]; P. aeruginosa 27853

CCc1cc(C(=O)O)c(=O)[nH]c1-c1ccc(N2CC[C@@H](F)C2)cc1 [Cpd 154, 5-ethyl-6-{4-[(3R)-3-fluoropyrrolidin-1-yl]phenyl}-2-oxo-1,2-dihydropyridine-3-carboxylic acid]
12.5 to 150 µg/mL: [4] | [5]; [14] | [6]; [15] | [8]; P. aeruginosa 27853
3.5 to 12.5 µg/mL: [3]
< 1 µg/mL: [1]; [13] | [11]; H. influenzae 49247 | [10]; M. catarrhalis 25238 | [12]; N. meningitidis 13090
1 to 3.5 µg/mL: [2]

CCc1cc(C(=O)O)c(=O)[nH]c1-c1ccc(Nc2ccccc2)cc1 [Cpd 155, 5-ethyl-2-oxo-6-[4-(phenylamino)phenyl]-1,2-dihydropyridine-3-carboxylic acid]
3.5 to 12.5 µg/mL: [3]
< 1 µg/mL: [1]; [13] | [11]; H. influenzae 49247 | [10]; M. catarrhalis 25238 | [12]; N. meningitidis 13090
12.5 to 150 µg/mL: [4] | [5]; [14] | [6]; [15] | [8]; P. aeruginosa 27853
1 to 3.5 µg/mL: [2]

CCc1cc(C(=O)O)c(=O)[nH]c1-c1ccc(N2CCC[C@H]2C(=O)O)cc1 [Cpd 157, 6-{4-[(2S)-2-carboxypyrrolidin-1-yl]phenyl}-5-ethyl-2-oxo-1,2-dihydropyridine-3-carboxylic acid]
< 1 µg/mL: [1]; [13] | [11]; H. influenzae 49247 | [10]; M. catarrhalis 25238 | [12]; N. meningitidis 13090
3.5 to 12.5 µg/mL: [2]
12.5 to 150 µg/mL: [3] | [4] | [5]; [14] | [6]; [15] | [8]; P. aeruginosa 27853

CCc1c(-c2ccc(N3C[C@@H]4[C@H](C3)[C@H]4N(C)C)cc2)[nH]c(=O)c(C(=O)O)c1O [Cpd 271, 6-{4-[(1R,5S,6s)-6-(dimethylamino)-3-azabicyclo[3.1.0]hex-3-yl]phenyl}-5-ethyl-4-hydroxy-2-oxo-1,2-dihydropyridine-3-carboxylic acid hydrochloride]
3.5 to 12.5 µg/mL: [2] | [4] | [6]; [15]
< 1 µg/mL: [1]; [13]
12.5 to 150 µg/mL: [3] | [5]; [14] | [9]; [16] | [8]; P. aeruginosa 27853

CCc1c(-c2ccc(N3CC=CC3)cc2)[nH]c(=O)c(C(=O)O)c1O [Cpd 302, 6-[4-(2,5-dihydro-1H-pyrrol-1-yl)phenyl]-5-ethyl-4-hydroxy-2-oxo-1,2-dihydropyridine-3-carboxylic acid]
< 1 µg/mL: [1]; [13] | [3] | [11]; H. influenzae 49247 | [10]; M. catarrhalis 25238 | [12]; N. meningitidis 13090
1 to 3.5 µg/mL: [2]
12.5 to 150 µg/mL: [4] | [5]; [14] | [6]; [15]
3.5 to 12.5 µg/mL: [8]; P. aeruginosa 27853

CCc1c(-c2ccc(N3C[C@@H](O)[C@@H](O)C3)cc2)[nH]c(=O)c(C(=O)O)c1O [Cpd 304, 6-{4-[(3R,4S)-3,4-dihydroxypyrrolidin-1-yl]phenyl}-5-ethyl-4-hydroxy-2-oxo-1,2-dihydropyridine-3-carboxylic acid]
12.5 to 150 µg/mL: [4] | [5]; [14] | [6]; [15] | [8]; P. aeruginosa 27853
3.5 to 12.5 µg/mL: [2] | [3]
< 1 µg/mL: [1]; [13] | [11]; H. influenzae 49247 | [10]; M. catarrhalis 25238 | [12]; N. meningitidis 13090

CN(C)c1ccc(-c2ccc(C(=O)O)c(=O)[nH]2)cc1 [Cpd 310, 6-[4-(dimethylamino)phenyl]-2-oxo-1,2-dihydropyridine-3-carboxylic acid]
12.5 to 150 µg/mL: [1]; [13] | [2] | [3] | [4] | [5]; [14] | [6]; [15] | [9]; [16] | [8]; P. aeruginosa 27853 | [10]; M. catarrhalis 25238
